According to ChEMBL document CHEMBL1201862, “PubChem BioAssay data set” (2004):
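Briefly, cells in 96-well plates were exposed to five compound concentrations for 48 h, and endpoints were estimated by linear interpolation. GI50 marks 50% less growth.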 Calls of active or inactive are those of the source. Cut-off read from the data, not from the text of the source: active = GI50 up to about 1.1 µM and inactive = higher.

Tests used:
Experiment in all cases: inhibition of tumour cell growth, NCI panel, 48 h
NCI-H460 = system: NCI-H460
OVCAR-3 = system: OVCAR-3
IGROV-1 = system: IGROV-1
UACC-257 = system: UACC-257
HT-29 = system: HT-29
MOLT-4 = system: MOLT-4
OVCAR-8 = system: OVCAR-8
SK-MEL-5 = system: SK-MEL-5
SF-268 = system: SF-268
NCI-H23 = system: NCI-H23
SK-MEL-28 = system: SK-MEL-28
U-251 = system: U-251
RPMI-8226 = system: RPMI-8226
HCT-15 = system: HCT-15
SNB-19 = system: SNB-19
SW-620 = system: SW-620
COLO 205 = system: COLO 205
UACC-62 = system: UACC-62
UO-31 = system: UO-31
KM-20L2 = system: KM-20L2

Structure (SMILES) | GI50 (NCI-H460) | GI50 (OVCAR-3) | GI50 (IGROV-1) | GI50 (UACC-257) | GI50 (HT-29) | GI50 (MOLT-4) | GI50 (OVCAR-8) | GI50 (SK-MEL-5) | GI50 (SF-268) | GI50 (NCI-H23) | GI50 (SK-MEL-28) | GI50 (U-251) | GI50 (RPMI-8226) | GI50 (HCT-15) | GI50 (SNB-19) | GI50 (SW-620) | GI50 (COLO 205) | GI50 (UACC-62) | GI50 (UO-31) | GI50 (KM-20L2)
CSC1=C(SC)C(=O)c2cn(C)c(=O)cc2C1=O | 9.38 µM (inactive) | 1.91 µM (inactive) | 11.1 µM (inactive) | 2.34 µM (inactive) | 6.14 µM (inactive) | 1.08 µM (active) | > 44.1 µM (inactive) | 1.75 µM (inactive) | 11.8 µM (inactive) | 4.57 µM (inactive) | 2.82 µM (inactive) | 10.2 µM (inactive) | 2.4 µM (inactive) | 2.14 µM | 17.1 µM (inactive) | 1.74 µM (inactive) | 1.49 µM (inactive) | 2.7 µM (inactive) | 1.75 µM (inactive) | –
O=C(O)c1cccc(OCCO)c1 | > 100 µM (inactive) | > 100 µM (inactive) | > 100 µM (inactive) | > 100 µM (inactive) | > 100 µM (inactive) | > 100 µM (inactive) | > 100 µM (inactive) | > 100 µM (inactive) | > 100 µM (inactive) | > 100 µM (inactive) | > 100 µM (inactive) | > 100 µM (inactive) | > 100 µM (inactive) | > 100 µM | > 100 µM (inactive) | > 100 µM (inactive) | > 100 µM (inactive) | > 100 µM (inactive) | > 100 µM (inactive) | –
Cc1ccc(C=C(C(=O)O)C(=O)O)o1 | > 100 µM (inactive) | > 100 µM (inactive) | > 100 µM (inactive) | > 100 µM (inactive) | > 100 µM (inactive) | > 100 µM (inactive) | > 100 µM (inactive) | > 100 µM (inactive) | > 100 µM (inactive) | > 100 µM (inactive) | > 100 µM (inactive) | > 100 µM (inactive) | > 100 µM (inactive) | > 100 µM | > 100 µM (inactive) | > 100 µM (inactive) | > 100 µM (inactive) | > 100 µM (inactive) | > 100 µM (inactive) | –
CSCCC(NOC(=O)Cc1ccccc1)P(=O)(O)c1ccccc1 (stereo not given) | > 100 µM (inactive) | > 100 µM (inactive) | > 100 µM (inactive) | > 100 µM (inactive) | > 100 µM (inactive) | > 100 µM (inactive) | > 100 µM (inactive) | > 100 µM (inactive) | – | > 100 µM (inactive) | > 100 µM (inactive) | > 100 µM (inactive) | > 100 µM (inactive) | > 100 µM | > 100 µM (inactive) | > 100 µM (inactive) | > 100 µM (inactive) | – | > 100 µM (inactive) | –
C1CNCCNCCNCCN1 | 35.8 µM (inactive) | 72.6 µM (inactive) | > 100 µM (inactive) | > 100 µM (inactive) | 63.5 µM (inactive) | 64.6 µM (inactive) | > 100 µM (inactive) | > 100 µM (inactive) | – | > 100 µM (inactive) | > 100 µM (inactive) | 24 µM (inactive) | > 100 µM (inactive) | > 10 µM | > 100 µM (inactive) | 52.2 µM (inactive) | 37.5 µM (inactive) | > 100 µM (inactive) | > 100 µM (inactive) | 82.6 µM (inactive)
CC(C)(C)[Si](C)(C)OCCCC#CCO | > 100 µM (inactive) | – | > 100 µM (inactive) | > 100 µM (inactive) | > 100 µM (inactive) | 92.7 µM (inactive) | > 100 µM (inactive) | > 100 µM (inactive) | > 100 µM (inactive) | > 100 µM (inactive) | > 100 µM (inactive) | > 100 µM (inactive) | 64.9 µM (inactive) | > 100 µM | > 100 µM (inactive) | > 100 µM (inactive) | > 100 µM (inactive) | > 100 µM (inactive) | > 100 µM (inactive) | > 100 µM (inactive)
COC1CCC(CO)OO1 (stereo not given) | 24.7 µM (inactive) | 18 µM (inactive) | 26.4 µM (inactive) | 45.2 µM (inactive) | 28.9 µM (inactive) | 33.9 µM (inactive) | – | – | 35.8 µM (inactive) | 18.8 µM (inactive) | 52 µM (inactive) | 4.57 µM (inactive) | 19.1 µM (inactive) | – | 41.4 µM (inactive) | – | 53.6 µM (inactive) | 70.3 µM (inactive) | 35.1 µM (inactive) | 23.9 µM (inactive)
Clc1ccc(C2SCc3nc4ccccc4n32)cc1 (stereo not given) | 28.9 µM (inactive) | 24.8 µM (inactive) | 14.5 µM (inactive) | – | 19.5 µM (inactive) | 18 µM (inactive) | 29.1 µM (inactive) | 10.3 µM (inactive) | 19 µM (inactive) | 10.9 µM (inactive) | 21.2 µM (inactive) | 24 µM (inactive) | 14.9 µM (inactive) | 27.4 µM | 14.8 µM (inactive) | 33.3 µM (inactive) | 16.5 µM (inactive) | 13.8 µM (inactive) | 13.5 µM (inactive) | 28.2 µM (inactive)
Oc1nc2c(c(-c3ccccc3Cl)n1)COC/C2=C\c1ccccc1Cl | > 100 µM (inactive) | > 100 µM (inactive) | 43.9 µM (inactive) | > 100 µM (inactive) | > 100 µM (inactive) | 55.5 µM (inactive) | > 100 µM (inactive) | > 100 µM (inactive) | > 100 µM (inactive) | > 100 µM (inactive) | > 100 µM (inactive) | > 100 µM (inactive) | > 100 µM (inactive) | > 100 µM | > 100 µM (inactive) | > 100 µM (inactive) | > 100 µM (inactive) | > 100 µM (inactive) | 80.9 µM (inactive) | –
CC(=O)NC(CCCCNC(=O)OC(C)(C)C)C(=O)O (stereo not given) | > 100 µM (inactive) | > 100 µM (inactive) | > 100 µM (inactive) | > 100 µM (inactive) | > 100 µM (inactive) | > 100 µM (inactive) | > 100 µM (inactive) | > 100 µM (inactive) | > 100 µM (inactive) | – | > 100 µM (inactive) | > 100 µM (inactive) | > 100 µM (inactive) | > 100 µM | > 100 µM (inactive) | > 100 µM (inactive) | > 100 µM (inactive) | > 100 µM (inactive) | > 100 µM (inactive) | –
COc1ccc2c(c1)c1c(n2CCN2CCCCC2)-c2cccc(OC)c2CC1 | 19.9 µM (inactive) | 17.2 µM (inactive) | 13.4 µM (inactive) | 18.2 µM (inactive) | 4.58 µM (inactive) | 16.4 µM (inactive) | 16.9 µM (inactive) | 18.2 µM (inactive) | 19.7 µM (inactive) | 14.8 µM (inactive) | 15.4 µM (inactive) | 13.1 µM (inactive) | 11.5 µM (inactive) | 8.99 µM | 13.4 µM (inactive) | 16.7 µM (inactive) | 16.7 µM (inactive) | 14.2 µM (inactive) | 10.4 µM (inactive) | –
Cc1cn(C2CC(O)C(Cn3cc(Cn4nc(Br)c(=O)[nH]c4=O)nn3)O2)c(=O)[nH]c1=O (stereo not given) | – | > 100 µM (inactive) | – | > 100 µM (inactive) | – | > 100 µM (inactive) | > 100 µM (inactive) | > 100 µM (inactive) | > 100 µM (inactive) | > 100 µM (inactive) | > 100 µM (inactive) | > 100 µM (inactive) | > 100 µM (inactive) | > 100 µM | > 100 µM (inactive) | > 100 µM (inactive) | > 100 µM (inactive) | > 100 µM (inactive) | > 100 µM (inactive) | –
Nc1nc(=O)[nH]cc1F [FLUCYTOSINE] | > 100 µM (inactive) | > 100 µM (inactive) | > 100 µM (inactive) | 24 µM (inactive) | > 100 µM (inactive) | > 100 µM (inactive) | > 100 µM (inactive) | > 100 µM (inactive) | > 100 µM (inactive) | > 100 µM (inactive) | > 100 µM (inactive) | 32.7 µM (inactive) | > 100 µM (inactive) | > 100 µM | > 100 µM (inactive) | > 100 µM (inactive) | > 100 µM (inactive) | > 100 µM (inactive) | > 100 µM (inactive) | –
CC(=O)Nc1ccc2oc(=O)c3ccccc3c2c1 | > 100 µM (inactive) | > 100 µM (inactive) | > 100 µM (inactive) | > 100 µM (inactive) | > 100 µM (inactive) | > 100 µM (inactive) | > 100 µM (inactive) | > 100 µM (inactive) | > 100 µM (inactive) | > 100 µM (inactive) | > 100 µM (inactive) | > 100 µM (inactive) | > 100 µM (inactive) | > 100 µM | > 100 µM (inactive) | > 100 µM (inactive) | > 100 µM (inactive) | 50.9 µM (inactive) | > 100 µM (inactive) | –
COc1ccc(C[C@H](N)C(=O)N2C[C@@H](CO)C[C@@H](n3cnc4c(N(C)C)ncnc43)C2)cc1 | > 100 µM (inactive) | > 100 µM (inactive) | > 100 µM (inactive) | > 100 µM (inactive) | > 100 µM (inactive) | > 100 µM (inactive) | > 100 µM (inactive) | > 100 µM (inactive) | > 100 µM (inactive) | > 100 µM (inactive) | > 100 µM (inactive) | > 100 µM (inactive) | > 100 µM (inactive) | > 100 µM | > 100 µM (inactive) | > 100 µM (inactive) | – | > 100 µM (inactive) | > 100 µM (inactive) | > 100 µM (inactive)
COc1cc(C=O)cc(O)c1O | 76.6 µM (inactive) | > 100 µM (inactive) | > 100 µM (inactive) | > 100 µM (inactive) | 8.07 µM (inactive) | > 100 µM (inactive) | > 100 µM (inactive) | – | > 100 µM (inactive) | > 100 µM (inactive) | > 100 µM (inactive) | > 100 µM (inactive) | > 100 µM (inactive) | > 100 µM | > 100 µM (inactive) | > 100 µM (inactive) | > 100 µM (inactive) | 27.4 µM (inactive) | > 100 µM (inactive) | > 100 µM (inactive)
